# Measurements taken from PMC4297708 (Drug and alcohol dependence, 2014).
# Entries after “also recorded” stand apart in the source; their conditions may differ. Where two headings read alike, the source gives them in different places.
# Legend:
# [1] = compared to amphetamine; ref Rothman et al., 2005; cited from earlier work
# [2] = tested on: vesicular monoamine transporter 2 (VMAT2); conditions: measured with Tyramine, ref Partilla et al., 2006, cited from earlier work; for EC50: read-out: VMAT2 Release EC50
# [3] = tested on: rats; conditions: ref Rothman et al., 2005; cited from earlier work
# [4] = cited from earlier work
# [5] = target: T1, dopamine transporter (DAT) (Rattus norvegicus, UniProt P23977); experiment: biochemical; conditions: for DA/5-HT Ratio: ratio of release potencies
# T1 sequence (P23977 whole entry): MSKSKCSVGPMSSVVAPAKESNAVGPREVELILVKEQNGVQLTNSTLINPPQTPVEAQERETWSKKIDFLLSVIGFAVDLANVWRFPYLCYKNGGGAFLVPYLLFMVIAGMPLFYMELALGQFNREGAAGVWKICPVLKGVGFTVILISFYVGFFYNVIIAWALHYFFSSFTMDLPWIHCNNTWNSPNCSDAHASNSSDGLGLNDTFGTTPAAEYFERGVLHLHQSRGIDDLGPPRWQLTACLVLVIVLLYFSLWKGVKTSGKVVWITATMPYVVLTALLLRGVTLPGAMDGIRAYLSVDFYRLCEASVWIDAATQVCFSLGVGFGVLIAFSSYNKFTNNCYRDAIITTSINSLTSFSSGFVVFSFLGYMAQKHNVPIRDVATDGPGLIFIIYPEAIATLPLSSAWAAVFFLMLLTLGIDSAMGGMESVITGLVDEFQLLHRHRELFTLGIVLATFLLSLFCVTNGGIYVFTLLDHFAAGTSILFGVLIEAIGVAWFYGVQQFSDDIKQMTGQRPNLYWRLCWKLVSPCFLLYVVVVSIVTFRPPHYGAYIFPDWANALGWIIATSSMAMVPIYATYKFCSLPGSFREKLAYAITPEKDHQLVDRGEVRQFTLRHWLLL
# [6] = target: T2, SERT (Rattus norvegicus, UniProt P31652); experiment: 5-HT release assay in synaptosomes; type: biochemical; conditions: read-out: 5-HT Release EC50; rat brain synaptosomes; mean ± SD, n=3; Table 4
# T2 sequence (P31652 whole entry): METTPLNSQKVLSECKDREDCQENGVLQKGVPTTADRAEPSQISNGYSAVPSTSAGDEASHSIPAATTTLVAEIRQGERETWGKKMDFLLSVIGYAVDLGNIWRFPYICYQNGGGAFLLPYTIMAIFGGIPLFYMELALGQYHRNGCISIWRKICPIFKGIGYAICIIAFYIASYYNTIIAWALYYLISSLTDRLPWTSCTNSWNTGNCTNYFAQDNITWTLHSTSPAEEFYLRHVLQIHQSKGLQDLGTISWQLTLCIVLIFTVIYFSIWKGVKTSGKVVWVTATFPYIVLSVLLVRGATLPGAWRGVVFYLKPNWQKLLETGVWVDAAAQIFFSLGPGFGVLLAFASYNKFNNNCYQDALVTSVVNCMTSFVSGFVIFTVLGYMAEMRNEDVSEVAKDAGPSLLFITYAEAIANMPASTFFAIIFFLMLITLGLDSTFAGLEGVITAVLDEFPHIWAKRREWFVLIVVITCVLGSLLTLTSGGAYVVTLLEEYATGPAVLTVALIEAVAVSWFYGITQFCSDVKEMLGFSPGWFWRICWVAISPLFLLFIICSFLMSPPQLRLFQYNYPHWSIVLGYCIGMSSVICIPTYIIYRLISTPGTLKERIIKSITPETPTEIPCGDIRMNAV
# [7] = ref Loland et al., 2012; cited from earlier work
# [8] = tested on: human; conditions: humans; ref Dackis et al., 2003; Malcolm et al., 2006; Hart et al., 2008; cited from earlier work
# [9] = tested on: mice; conditions: mice trained to discriminate cocaine (10 mg/kg) from saline; ref Loland et al. 2012; cited from earlier work
# [10] = target: T1, dopamine transporter (DAT); experiment: DAT uptake inhibition assay; type: biochemical
# [11] = tested on: rats; conditions: ref Katz et al., 1999b; cited from earlier work
# [12] = target: T1, dopamine transporter (DAT); conditions: read-out: DAT UI IC50; rat brain synaptosomes; ref Yu et al., 2000; cited from earlier work
# [13] = target: T2, SERT; conditions: read-out: 5-HT Release EC50; rat brain synaptosomes; ref Yu et al., 2000; cited from earlier work
# [14] = tested on: DAT; conditions: highest dose studied, 56 mg/kg; ref Hiranita et al., 2014; cited from earlier work
# [15] = tested on: sigma receptors; conditions: ref Hiranita et al., 2014; cited from earlier work
# [16] = tested on: rats; conditions: ref Hiranita et al., 2014; cited from earlier work
# [17] = tested on: rats; conditions: ref Hiranita et al., cited from earlier work; for effect on cocaine self-administration dose-effect curve: rats, 2014
# [18] = tested on: rats; conditions: rats trained to discriminate cocaine from saline; ref Carroll et al., 2004; cited from earlier work
# [19] = tested on: CB1Rs; conditions: increased efficacy of CP 55940 in calcium mobilization; ref Navarro et al., 2009; cited from earlier work
# [20] = tested on: mice; conditions: range of behaviorally active doses, ref Carroll et al., 2004; cited from earlier work
# [21] = tested on: mice; conditions: cited from earlier work
# [22] = tested on: rats; experiment: Horizontal locomotor activity; type: in vivo; conditions: male rats, 1 or 3 mg/kg i.v.; Fig. 7, Fig. 8
# [23] = tested on: rats; experiment: In vivo microdialysis in the n. accumbens; conditions: male rats, 1 or 3 mg/kg i.v.; for extracellular (dialysate) DA in n. accumbens: Fig. 7, Fig. 8
# [24] = tested on: DAT Y335A; conditions: ref Loland et al., 2008; cited from earlier work
# [25] = rat brain synaptosomes, Table 4
# [26] = read-out: DA Release EC50, rat brain synaptosomes, mean ± SD, n=3, Table 4
# [27] = rat brain synaptosomes, % maximal release, Table 3
# [28] = read-out: DA Release EC50, rat brain synaptosomes, mean ± SD, n=3, Table 3
# [29] = read-out: DAT UI IC50, rat brain synaptosomes, mean ± SD, n=3, Table 3
smiles,measurement,setting,value
CC(N)Cc1ccc2ccccc2c1 (stereo not drawn) [PAL-287],reinforcing effects,[1],lacked strong reinforcing effects
same,EC50,[2],1250 ± 230 nM
same,DA release in vivo (microdialysis),[3],released much less DA than expected
same,locomotor stimulant effect,"[4]; compared to amphetamine, ref Rothman et al., 2005",weak locomotor stimulant
CC(N)Cc1cccc(F)c1 (stereo not drawn) [PAL-353],DA/5-HT Ratio,[5]; [25],80
same,EC50,[5]; [26],24.2 ± 1.1 nM
same,EC50,[6],1940 ± 202 nM
"Cc1ccccc1N1CCNCC1 [PAL-169, 2-Methylphenylpiperazine]",DA Release EMAX,[5]; [27],90 ± 1%
same,EC50,[5]; [28],296 ± 20 nM
NCCc1ccccc1 [Phenethylamine],EC50,[5],39.5 ± 1.8 nM
NC(=O)C[S+]([O-])C(c1ccccc1)c1ccccc1 (stereo not drawn) [modafinil],locomotor activity,"[4]; ref Cao et al., 2010","stimulated locomotor activity, though to a lesser extent than cocaine"
same,DA concentrations in the nucleus accumbens shell,[7],"increased DA concentrations in the nucleus accumbens shell, though also to a lesser extent than cocaine"
same,effect on cocaine-induced euphoria,[8],blunted cocaine-induced euphoria
same,substitution for cocaine (drug discrimination),[9],fully substituted for cocaine
"CC1NCCOC1c1ccccc1 (single isomer, unassigned; (+)) [(+)-Phenmetrazine]",EC50,[5],87.4 ± 7.8 nM
same,VMAT2 Release EC50 (μM),[2],completely inactive
same,EC50,[2],> 100000 nM
CNC(C)Cc1ccc2c(c1)OCO2 (stereo not drawn) [MDMA],DA Release EMAX,[5],103 ± 2%
same,EC50,[5]; read-out: DA Release EC50,108 ± 10 nM
CC(N)Cc1ccc(F)cc1 (stereo not drawn) [PAL-303],DA/5-HT Ratio,[5]; [25],18
same,EC50,[5]; [26],51.5 ± 1.7 nM
same,EC50,[6],939 ± 76 nM
CCCC(C(=O)c1ccc2c(c1)OCO2)N1CCCC1 (stereo not drawn) [MDPV],IC50,[10]; [29],4.1 ± 0.06 nM
CN1[C@@H]2C[C@@H](OC(=O)[C@H](CO)c3ccccc3)C[C@H]1[C@@H]1O[C@@H]12 [scopolamine],effect on effects of cocaine in drug discrimination procedures,[11],potentiation of effects of cocaine
CNC(C)C(=O)c1ccc(C)cc1 (stereo not drawn) [Mephedrone],EC50,[5],49.1 ± 3.1 nM
"Cc1ccc(N2CCNCC2)cc1 [PAL-233, 4-Methylphenylpiperazine]",IC50,[10]; [29],9520 ± 436 nM
CCNC(C)C(=O)c1ccccc1 (stereo not drawn) [N-Ethylpropion],IC50,[12],1010 ± 80 nM
same,EC50,[13],2120 ± 98 nM
CC(NC(C)(C)C)C(=O)c1cccc(Cl)c1 (stereo not drawn) [Bupropion],IC50,[10],658 ± 178 nM
c1ccc(CN2CCNCC2)cc1 [Benzylpiperazine],EC50,"[5]; read-out: DAT Release EC50, mean ± SD, n=3, Table 5",307 ± 19 nM
same,VMAT2 Release EC50 (μM),[2],lack VMAT2 activity
same,EC50,[2],> 100000 nM
CNC(C)Cc1ccc2ccccc2c1 (stereo not drawn) [PAL-1046],DA Release EMAX,[5]; [27],101 ± 3%
same,EC50,[5]; [28],10 ± 1 nM
CN[C@@H](C)Cc1ccccc1 [Methamphetamine],EC50,[5],24.5 ± 2.1 nM
CC(C)(N)Cc1ccccc1 [Phentermine],EC50,[5],262 ± 21 nM
same,VMAT2 Release EC50 (μM),[2],lack VMAT2 activity
same,EC50,[2],> 100000 nM
"Cc1ccc([C@H]2C[C@@H]3CC[C@H]([C@H]2c2cc(-c4ccc(Cl)cc4)no2)N3C)cc1 [RTI-371, 3β-(4-methylphenyl)-2β-[3-(4-chlorophenyl)isoxazol-5-yl]tropane]",rate of displacement of [125I]RTI-121,[14],0.320 %/min
same,affinity at sigma receptors,[15],relatively low affinity at sigma receptors
same,self-administration of the compound versus vehicle,[16],not self-administered at rates above those obtained with vehicle
same,effect on cocaine self-administration dose-effect curve,[17],dose-related decreases in the maximum self-administration of cocaine
same,substitution for cocaine (drug discrimination),[18],did not substitute
same,modulation of CB1Rs,[19],positive-allosteric modulation of CB1Rs
same,locomotor activity,[20],failed to stimulate locomotor activity
same,effect on cocaine-induced locomotor stimulation,"[21]; preliminary report, ref Navarro et al., 2009",blocked cocaine-induced locomotor stimulation
Fc1ccc(C(O[C@H]2C[C@H]3CC[C@@H](C2)N3CC2CC2)c2ccc(F)cc2)cc1 [JHW013],locomotor activity,"[4]; fast-onset BZT analogs, ref Li et al., 2011",stimulant effects that were substantially reduced compared to those of cocaine
CCCNC(C)C(=O)c1ccccc1 (stereo not drawn) [PAL-359],DA UI IC50 (nM),"[10]; rat brain synaptosomes, mean ± SD, n=3 in triplicate, Table 1",inactive
CCNC(C)Cc1ccccc1 (stereo not drawn) [PAL-99],DA Release EMAX,[5]; [27],111 ± 13%
Cc1ccc(-c2cc([C@@H]3C4CCC(C[C@@H]3c3ccc(Cl)cc3)N4C)on2)cc1 (stereo partly drawn) [RTI-336],affinity at sigma receptors,[15],relatively low affinity at sigma receptors
same,self-administration of the compound versus vehicle,[16],self-administered at levels greater than vehicle
same,effect on cocaine self-administration dose-effect curve,[17],dose-related leftward shifts in the cocaine self-administration dose effect curve
same,substitution for cocaine (drug discrimination),[18],fully substitutes
Cc1ccc(CC(C)N)cc1 (stereo not drawn) [PAL-313],locomotor stimulation (horizontal locomotor activity),[22],lowest levels of locomotor stimulation
same,DA/5-HT Ratio,[5]; [25],1.2
same,EC50,[5]; [26],44.1 ± 2.6 nM
same,extracellular (dialysate) DA in n. accumbens,[23],lowest level of DA release in vivo
same,extracellular 5-HT in n. accumbens,[23]; Fig. 8,highest level of 5-HT release
same,EC50,[6],53.4 ± 4.1 nM
"Cc1cccc(N2CCNCC2)c1C [PAL-218, 2,3-Dimethylphenylpiperazine]",DA Release EMAX,[5]; [27],66 ± 1%
same,EC50,[5]; [28],1210 ± 118 nM
CCN[C@@H](C)Cc1ccc2ccccc2c1 [PAL-1045],locomotor stimulation (horizontal locomotor activity),[22],smaller when compared to the full efficacy releaser
same,DA Release EMAX,[5]; [27],78 ± 5%
same,EC50,[5]; [28],46 ± 11 nM
same,extracellular (dialysate) DA in n. accumbens,[23],extracellular DA concentrations increase; also recorded: magnitude of effect on dialysate DA is lower than that of a full efficacy releaser
COC(=O)[C@H]1[C@@H](OC(=O)c2ccccc2)C[C@@H]2CC[C@H]1N2C [cocaine],loss in potency for Y335A compared with wild-type DAT,[24],~100 fold
CCCCN1[C@@H]2CC[C@H]1CC(OC(c1ccc(F)cc1)c1ccc(F)cc1)C2 (stereo partly drawn) [JHW 007],modulation of CB1Rs,[19],positive-allosteric modulation of CB1Rs
same,effect on cocaine-induced locomotor stimulation,"[21]; CB1R wild-type and knockout mice, co-injection, ref Desai et al., 2014",significantly blunted the locomotor stimulant effects of cocaine
same,effect on cocaine-induced locomotor stimulation,"[21]; DA D2R knockout and wild-type mice, ref Desai et al., 2014",blocked the stimulant effects of cocaine equally in both knockout and wild-type mice
Cc1cccc(CC(C)N)c1 (stereo not drawn) [PAL-314],DA/5-HT Ratio,[5]; [25],6.5
same,EC50,[5]; [26],33.3 ± 1.3 nM
same,EC50,[6],218 ± 22 nM
C[C@@H]1CN(CCCn2c3ccccc3c3ccccc32)C[C@H](C)N1 [rimcazole],effect on cocaine self-administration,[17]; 2011,blocked cocaine self-administration
CN1[C@@H]2CC[C@H]1C[C@@H](OC(=O)C(CO)c1ccccc1)C2 (stereo partly drawn) [atropine],effect on effects of cocaine in drug discrimination procedures,[11],potentiation of effects of cocaine
